Data taken from ChEMBL document CHEMBL5291721, “A preclinical secondary pharmacology resource illuminates target-adverse drug reaction associations of marketed drugs” (Nat Commun, 2023).

Legend:
[1] = target: T1, Beta-2 adrenergic receptor (Homo sapiens, UniProt P07550)
Glucocorticoid receptor = target: T2, Glucocorticoid receptor (Homo sapiens, UniProt P04150)
T2 sequence (P04150 whole entry): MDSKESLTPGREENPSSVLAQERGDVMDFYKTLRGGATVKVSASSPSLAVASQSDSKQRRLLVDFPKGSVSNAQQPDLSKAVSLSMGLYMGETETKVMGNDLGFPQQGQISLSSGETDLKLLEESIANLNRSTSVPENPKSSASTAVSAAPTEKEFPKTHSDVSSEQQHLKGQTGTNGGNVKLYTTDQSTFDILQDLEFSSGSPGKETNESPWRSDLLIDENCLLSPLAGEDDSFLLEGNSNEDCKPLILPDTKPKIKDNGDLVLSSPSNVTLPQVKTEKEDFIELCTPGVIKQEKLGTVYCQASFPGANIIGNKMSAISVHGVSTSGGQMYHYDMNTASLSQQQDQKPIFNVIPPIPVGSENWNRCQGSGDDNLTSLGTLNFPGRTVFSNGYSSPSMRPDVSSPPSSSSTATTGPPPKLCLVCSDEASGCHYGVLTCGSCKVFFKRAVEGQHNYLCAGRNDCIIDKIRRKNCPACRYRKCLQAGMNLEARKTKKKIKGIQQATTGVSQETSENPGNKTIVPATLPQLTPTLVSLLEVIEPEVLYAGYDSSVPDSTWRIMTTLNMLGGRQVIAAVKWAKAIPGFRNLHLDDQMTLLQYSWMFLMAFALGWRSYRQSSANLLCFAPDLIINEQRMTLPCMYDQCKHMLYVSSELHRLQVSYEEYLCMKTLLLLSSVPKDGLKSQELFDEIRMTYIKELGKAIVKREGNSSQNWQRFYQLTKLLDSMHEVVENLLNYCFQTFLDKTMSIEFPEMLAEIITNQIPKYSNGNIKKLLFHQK

[2] = target: T3, Equilibrative nucleoside transporter 1 (Homo sapiens, UniProt Q99808)
T3 sequence (Q99808 whole entry): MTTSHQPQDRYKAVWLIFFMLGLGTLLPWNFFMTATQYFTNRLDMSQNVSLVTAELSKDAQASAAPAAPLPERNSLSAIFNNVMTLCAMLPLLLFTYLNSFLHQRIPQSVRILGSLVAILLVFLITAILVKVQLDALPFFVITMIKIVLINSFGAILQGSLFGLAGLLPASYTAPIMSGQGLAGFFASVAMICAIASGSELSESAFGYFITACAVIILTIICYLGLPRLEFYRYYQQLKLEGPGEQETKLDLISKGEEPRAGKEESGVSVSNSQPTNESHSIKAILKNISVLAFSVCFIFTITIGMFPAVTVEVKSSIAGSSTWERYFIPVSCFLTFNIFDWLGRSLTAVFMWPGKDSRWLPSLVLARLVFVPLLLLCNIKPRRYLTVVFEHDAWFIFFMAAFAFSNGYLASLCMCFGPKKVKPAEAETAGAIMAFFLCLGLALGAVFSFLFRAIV

[3] = target: Sodium-dependent serotonin transporter (Homo sapiens, UniProt P31645)
[4] = target: Muscarinic acetylcholine receptor M3 (Homo sapiens, UniProt P20309)
[5] = target: T1, Beta-2 adrenergic receptor; type: functional, cell-based
[6] = target: T4, 5-hydroxytryptamine receptor 1A (Homo sapiens, UniProt P08908); type: functional, cell-based
T4 sequence (P08908 whole entry): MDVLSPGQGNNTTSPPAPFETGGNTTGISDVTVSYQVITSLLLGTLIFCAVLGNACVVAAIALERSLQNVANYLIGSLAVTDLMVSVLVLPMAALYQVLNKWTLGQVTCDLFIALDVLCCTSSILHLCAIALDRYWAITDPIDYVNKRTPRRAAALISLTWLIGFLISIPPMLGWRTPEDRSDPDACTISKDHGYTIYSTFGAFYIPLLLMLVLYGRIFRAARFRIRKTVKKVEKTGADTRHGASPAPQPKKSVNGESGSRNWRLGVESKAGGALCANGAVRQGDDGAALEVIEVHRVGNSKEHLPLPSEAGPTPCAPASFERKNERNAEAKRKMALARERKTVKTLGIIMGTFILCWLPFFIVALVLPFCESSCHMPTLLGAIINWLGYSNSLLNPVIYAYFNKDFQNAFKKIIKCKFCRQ

Cannabinoid receptor 1 = Cannabinoid receptor 1 (Homo sapiens, UniProt P21554)
Melanocortin receptor 4 = Melanocortin receptor 4 (Homo sapiens, UniProt P32245)
Mu-type opioid receptor = Mu-type opioid receptor (Homo sapiens, UniProt P35372)
[7] = target: T5, Alpha-1A adrenergic receptor (Homo sapiens, UniProt P35348)
T5 sequence (P35348 whole entry): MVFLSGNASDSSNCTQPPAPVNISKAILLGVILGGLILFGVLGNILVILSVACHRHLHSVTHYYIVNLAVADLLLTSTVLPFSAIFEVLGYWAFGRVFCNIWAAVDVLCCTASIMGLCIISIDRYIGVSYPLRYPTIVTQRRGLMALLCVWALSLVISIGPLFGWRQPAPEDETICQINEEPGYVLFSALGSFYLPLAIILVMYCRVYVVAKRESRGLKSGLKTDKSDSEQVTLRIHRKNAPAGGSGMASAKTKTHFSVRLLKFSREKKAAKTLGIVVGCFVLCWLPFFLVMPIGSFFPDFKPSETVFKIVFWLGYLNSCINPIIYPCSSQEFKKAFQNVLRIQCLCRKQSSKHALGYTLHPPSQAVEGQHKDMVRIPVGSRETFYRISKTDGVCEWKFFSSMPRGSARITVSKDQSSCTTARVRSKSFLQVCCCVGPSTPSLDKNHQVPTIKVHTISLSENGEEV
Also: assay procedure not described here.

Cannabinoid receptor 1, sequence (P21554 whole entry): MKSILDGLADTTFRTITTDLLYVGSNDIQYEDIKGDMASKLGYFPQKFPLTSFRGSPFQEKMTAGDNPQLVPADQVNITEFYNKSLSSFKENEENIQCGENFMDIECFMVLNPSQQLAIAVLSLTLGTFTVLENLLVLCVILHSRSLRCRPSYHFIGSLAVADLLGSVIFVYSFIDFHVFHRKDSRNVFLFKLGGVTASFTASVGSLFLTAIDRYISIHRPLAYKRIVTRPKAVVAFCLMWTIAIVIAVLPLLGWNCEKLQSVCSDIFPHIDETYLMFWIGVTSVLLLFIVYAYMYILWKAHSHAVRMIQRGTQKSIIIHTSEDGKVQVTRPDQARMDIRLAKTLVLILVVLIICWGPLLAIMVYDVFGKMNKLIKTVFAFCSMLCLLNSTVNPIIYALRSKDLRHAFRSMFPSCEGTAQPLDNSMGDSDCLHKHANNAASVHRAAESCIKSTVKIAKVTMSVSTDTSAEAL
Melanocortin receptor 4, sequence (P32245 whole entry): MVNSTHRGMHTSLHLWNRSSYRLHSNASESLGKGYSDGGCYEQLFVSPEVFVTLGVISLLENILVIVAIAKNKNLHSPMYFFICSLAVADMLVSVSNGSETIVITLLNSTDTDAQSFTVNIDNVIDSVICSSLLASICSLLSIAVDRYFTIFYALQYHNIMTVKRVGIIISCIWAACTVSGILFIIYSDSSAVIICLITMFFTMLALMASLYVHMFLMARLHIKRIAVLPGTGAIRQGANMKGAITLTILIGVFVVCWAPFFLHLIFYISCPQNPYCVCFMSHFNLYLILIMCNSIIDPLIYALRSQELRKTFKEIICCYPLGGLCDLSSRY
Muscarinic acetylcholine receptor M3, sequence (P20309 whole entry): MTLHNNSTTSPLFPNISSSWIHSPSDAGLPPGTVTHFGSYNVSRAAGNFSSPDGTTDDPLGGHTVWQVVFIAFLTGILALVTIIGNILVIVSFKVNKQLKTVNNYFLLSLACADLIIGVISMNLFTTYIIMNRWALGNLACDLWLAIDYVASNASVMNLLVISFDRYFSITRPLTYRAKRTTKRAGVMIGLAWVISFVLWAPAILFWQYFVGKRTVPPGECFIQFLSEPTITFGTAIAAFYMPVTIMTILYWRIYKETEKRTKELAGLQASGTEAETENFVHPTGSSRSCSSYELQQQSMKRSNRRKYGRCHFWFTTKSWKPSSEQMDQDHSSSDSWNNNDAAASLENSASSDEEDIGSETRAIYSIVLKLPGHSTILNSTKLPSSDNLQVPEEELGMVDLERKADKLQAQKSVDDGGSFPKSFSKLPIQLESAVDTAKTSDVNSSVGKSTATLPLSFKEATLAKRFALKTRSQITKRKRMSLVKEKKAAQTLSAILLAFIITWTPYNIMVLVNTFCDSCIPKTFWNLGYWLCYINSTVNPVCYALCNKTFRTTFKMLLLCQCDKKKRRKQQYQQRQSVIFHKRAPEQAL
T1 sequence (P07550 whole entry): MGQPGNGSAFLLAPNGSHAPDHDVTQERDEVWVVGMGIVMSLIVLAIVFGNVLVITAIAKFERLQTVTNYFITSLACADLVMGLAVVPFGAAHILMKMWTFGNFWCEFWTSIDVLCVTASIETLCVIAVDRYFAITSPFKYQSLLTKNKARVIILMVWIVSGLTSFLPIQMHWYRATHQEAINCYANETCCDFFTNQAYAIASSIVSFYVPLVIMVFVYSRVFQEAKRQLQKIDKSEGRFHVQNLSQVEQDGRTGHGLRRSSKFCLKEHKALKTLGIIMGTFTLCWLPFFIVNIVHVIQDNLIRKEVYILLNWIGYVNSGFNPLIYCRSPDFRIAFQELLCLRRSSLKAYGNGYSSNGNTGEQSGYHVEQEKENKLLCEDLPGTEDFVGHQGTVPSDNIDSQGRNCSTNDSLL
Mu-type opioid receptor, sequence (P35372 whole entry): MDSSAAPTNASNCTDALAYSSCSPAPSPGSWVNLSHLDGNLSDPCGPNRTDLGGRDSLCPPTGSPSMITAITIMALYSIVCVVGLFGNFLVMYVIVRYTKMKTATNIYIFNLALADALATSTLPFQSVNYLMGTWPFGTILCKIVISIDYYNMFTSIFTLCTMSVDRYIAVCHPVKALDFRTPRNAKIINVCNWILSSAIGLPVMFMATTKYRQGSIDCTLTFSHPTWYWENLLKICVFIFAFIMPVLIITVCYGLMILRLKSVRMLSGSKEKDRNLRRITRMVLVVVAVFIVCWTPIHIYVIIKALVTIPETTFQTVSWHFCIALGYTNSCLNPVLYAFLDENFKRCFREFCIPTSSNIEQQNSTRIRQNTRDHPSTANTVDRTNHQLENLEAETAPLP
Sodium-dependent serotonin transporter, sequence (P31645 whole entry): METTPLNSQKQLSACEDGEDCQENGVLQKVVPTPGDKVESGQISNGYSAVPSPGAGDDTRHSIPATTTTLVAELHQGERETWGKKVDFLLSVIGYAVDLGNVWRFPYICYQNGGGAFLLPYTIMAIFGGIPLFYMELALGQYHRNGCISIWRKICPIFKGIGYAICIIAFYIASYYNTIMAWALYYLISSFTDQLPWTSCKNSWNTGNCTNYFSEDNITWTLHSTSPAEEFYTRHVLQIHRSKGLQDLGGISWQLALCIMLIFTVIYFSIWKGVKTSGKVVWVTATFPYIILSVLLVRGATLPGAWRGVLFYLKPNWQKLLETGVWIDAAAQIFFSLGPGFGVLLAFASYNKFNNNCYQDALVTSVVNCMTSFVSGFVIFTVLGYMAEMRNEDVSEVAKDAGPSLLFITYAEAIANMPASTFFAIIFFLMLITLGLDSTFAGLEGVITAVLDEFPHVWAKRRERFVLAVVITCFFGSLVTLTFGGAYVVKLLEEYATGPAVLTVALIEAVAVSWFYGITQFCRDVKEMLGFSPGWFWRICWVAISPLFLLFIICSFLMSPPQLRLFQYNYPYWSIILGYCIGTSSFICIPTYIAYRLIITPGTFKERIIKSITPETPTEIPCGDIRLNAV

Row | Compound | AC50 [1] | AC50 (Glucocorticoid receptor) | AC50 [2] | AC50 [3] | AC50 [4] | AC50 [5] | AC50 [6] | AC50 (Cannabinoid receptor 1) | AC50 (Melanocortin receptor 4) | AC50 (Mu-type opioid receptor) | AC50 [7]
1 | CC(C)(Oc1ccc(Cl)cc1)C(=O)OCCOC(=O)c1cccnc1 [ETOFIBRATE] | > 30 µM | > 30 µM | > 30 µM | > 30 µM | > 30 µM | > 30 µM |  |  |  |  | 
2 | CC1(C)O[C@@H]2C[C@H]3[C@@H]4CCC5=CC(=O)C=C[C@]5(C)[C@@]4(F)[C@@H](O)C[C@]3(C)[C@]2(C(=O)CO)O1 [TRIAMCINOLONE ACETONIDE] |  | 0.0031 µM |  |  |  |  | > 30 µM |  |  |  | 
3 | C[C@]12CCC(=O)C=C1[C@@H]1C[C@@H]1[C@H]1[C@@H]3[C@@H]4C[C@@H]4[C@@]4(CCC(=O)O4)[C@@]3(C)CC[C@@H]12 [DROSPIRENONE] | > 30 µM |  | > 30 µM | > 30 µM | > 30 µM |  |  | > 30 µM |  |  | 
4 | COc1ccc(-c2cc(=S)ss2)cc1 [ANETHOLTRITHION] | 13 µM | > 30 µM | 5.4 µM | > 10 µM | > 30 µM |  | > 30 µM |  |  |  | 
5 | CN(C)CCC(O)(c1ccccc1)c1ccccc1Cl (centres undefined) [CHLOPHEDIANOL] | > 10 µM | > 10 µM | > 10 µM | > 10 µM | > 30 µM |  |  | > 10 µM | > 10 µM | > 30 µM | 11.8 µM
6 | COc1cccc2c1C(=O)c1c(O)c3c(c(O)c1C2=O)C[C@@](O)(C(=O)CO)C[C@@H]3O[C@H]1C[C@H](N)[C@H](O)[C@H](C)O1 [DOXORUBICIN] | > 10 µM | 2.59 µM | > 30 µM |  |  | > 30 µM |  | > 10 µM | > 30 µM | > 30 µM | > 10 µM
7 | N=C(N)NC(=O)c1nc(Cl)c(N)nc1N [AMILORIDE] | > 30 µM | > 30 µM | > 30 µM |  |  |  | 16 µM | > 30 µM | > 30 µM | > 10 µM | 2.69 µM
8 | CC(C)(C)NCC(O)COc1ccccc1C#N (centres undefined) [BUNITROLOL] |  |  |  |  | > 30 µM | > 30 µM |  |  |  |  | 
9 | COc1ccc(C(=O)c2ccccc2)c(O)c1 [OXYBENZONE] |  |  |  |  | > 30 µM | > 30 µM |  |  |  |  | 
10 | CN(C)[C@@H]1C(O)=C(C(=O)NCN2CCCC2)C(=O)[C@@]2(O)C(O)=C3C(=O)c4c(O)cccc4[C@@](C)(O)[C@H]3C[C@@H]12 [ROLITETRACYCLINE] | > 10 µM | 25.8 µM | > 10 µM | > 10 µM | > 10 µM |  | > 30 µM | > 10 µM | > 10 µM | > 30 µM | > 10 µM
11 | C[C@]12C=CC(=O)C=C1CC[C@@H]1[C@@H]2[C@@H](O)C[C@@]2(C)[C@H]1CC[C@]2(O)C(=O)CO [PREDNISOLONE] | > 10 µM |  | > 30 µM |  |  | > 30 µM | > 10 µM | > 10 µM | > 30 µM | > 30 µM | > 10 µM
12 | C[C@]12CCC(=O)C=C1C=C[C@@H]1[C@@H]2CC[C@@]2(C)[C@H]1CC[C@@]21CCC(=O)O1 [CANRENONE] | > 30 µM | 1.3 µM | > 30 µM | > 30 µM | > 30 µM | > 30 µM | > 30 µM |  |  |  | 
13 | C[C@]12C=CC(=O)C=C1C(Cl)=C[C@@H]1[C@@H]2[C@@H](O)C[C@@]2(C)[C@H]1CC[C@]2(O)C(=O)CO [CLOPREDNOL] |  | 0.032 µM | > 30 µM | > 30 µM | > 30 µM | > 30 µM | > 30 µM |  |  |  | 
14 | CCC(=O)c1ccc2c(c1)N(CC(C)N(C)C)c1ccccc1S2 (centres undefined) [PROPIOMAZINE] | > 10 µM | > 30 µM | > 10 µM | > 10 µM | 0.18 µM |  | 2.7 µM | > 10 µM | > 10 µM | 14 µM | 0.0294 µM
15 | Cc1ccc(O)c([C@H](CCN(C(C)C)C(C)C)c2ccccc2)c1 [TOLTERODINE] |  |  |  | > 10 µM |  |  | > 10 µM | > 10 µM |  | > 10 µM | 2.74 µM
16 | CC(NCCC(c1ccccc1)c1ccccc1)c1ccccc1 (centres undefined) [FENDILINE] |  |  |  |  |  |  |  |  |  | 0.78 µM | 
17 | Oc1cc(Cl)ccc1Oc1ccc(Cl)cc1Cl [TRICLOSAN] |  | > 30 µM |  | > 30 µM | > 30 µM | > 30 µM |  |  |  |  | 
